According to patent US6599893B2, “Cephalosporin antibiotics and prodrugs thereof” (Essential Therapeutics, Inc., priority 2000, dated 2003):
Converted amounts (≈) assume the structure as drawn. Like-named read-outs stand apart in the source and are kept apart here.

What was measured:
[1] = Human serum binding by ultrafiltration; type: in vitro ADME
[2] = Human serum binding estimated from serum effect on MIC (HSB*); type: in vitro ADME
Text: An estimate of human serum binding (HSB*) was obtained for some compounds using the MIC values against S. aureus ATCC 29213 determined in growth medium (GM) and in a 1:1 mixture of growth medium and human serum (GM+HS):
HSB*=(MICGM+HS−MICGM)/MICGM 100%

[3] = test system: Enterococcus faecium ATCC 35667; assay: Broth microdilution MIC, E. faecium ATCC 35667; type: cell-based; conditions: Enterococcus faecium ATCC 35667
In short: (§1)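 Broth microdilution per NCCLS M7-A3 (1993) guidelines. MIC taken as the lowest compound concentration preventing bacterial growth.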

S. aureus strain Smith = assay: Experimental infection of mice, ED50; type: in vivo, Swiss-Webster mice; conditions: 50% efficacious dose, S. aureus Smith, mice challenged intraperitoneally, compound subcutaneously at 0 and 2 h, total dose, 72 h survival
Procedure: Staphylococcus aureus strain Smith (ATCC 13709, penicillin-susceptible) or strain 76 (methicillin-resistant) was cultured overnight at 37° C. in brain-heart infusion broth (BHIB). The following morning, a portion of the culture was transferred to fresh BHIB and incubated for an additional 4-5 hours at 37° C. The cells were harvested by centrifugation, washed twice with PBS, and adjusted to the desired inoculum amount. The cell suspension was mixed with an equal volume of sterile 14% hog-gastric mucin (Comber K. R.; Osborne C. D.; Sutherland R.: Comparative effects of amoxicillin and ampicillin in the treatment of experimental mouse infections. Antimicrobial Agents and Chemotherapy 7(2):179-185, 1975). The inoculum was kept in an ice bath until used (preferably in less than one hour).
Male Swiss-Webster mice were challenged intraperitoneally with 0.5 mL of a bacterial suspension of S. aureus strain Smith (LD50). Test compounds were administered subcutaneously in 0.1 mL volumes immediately after inoculation and 2 hours later. […] The total dose associated with 50% survival (ED50) was determined using the probit method (Pasiello, A. P., J. M. Essigmann, and G. N. Wogan.: Rapid and accurate determination of median lethal dose (LD50) and its error with a small computer. J Toxicol. Environ. Health. 3:797-809, 1977).

[4] = test system: Enterococcus faecalis ATCC 29212; assay: Broth microdilution MIC, E. faecalis ATCC 29212; type: cell-based; conditions: Enterococcus faecalis ATCC 29212
In short: as §1

[5] = test system: Staphylococcus aureus COL (MRSA, non-β-lactamase producing); assay: Broth microdilution MIC, S. aureus COL; type: cell-based; conditions: Staphylococcus aureus COL (MRSA, non-β-lactamase producing)
In short: as §1

[6] = test system: Staphylococcus aureus ATCC 29213 (MSSA); assay: Broth microdilution MIC, S. aureus ATCC 29213; type: cell-based; conditions: Staphylococcus aureus ATCC 29213 (MSSA)
In short: as §1

[7] = test system: Staphylococcus aureus Smith (MSSA); assay: Broth microdilution MIC, S. aureus Smith; type: cell-based; conditions: Staphylococcus aureus Smith (MSSA)
In short: as §1

[8] = test system: Staphylococcus aureus 76 (MRSA, β-lactamase producing); assay: Broth microdilution MIC, S. aureus 76; type: cell-based; conditions: Staphylococcus aureus 76 (MRSA, β-lactamase producing)
In short: as §1

| SMILES | HSB, human serum binding [1] [%] | HSB*, human serum binding calculated using serum effect on MIC [2] [%] | MIC E. f. 35667 [3] [µg/mL] | ED50, mg/kg (95% C.I.) (S. aureus strain Smith) | MIC E. f. 29212 [4] [µg/mL] | MIC S. a. COL [5] [µg/mL] | MIC S. a. 29213 [6] [µg/mL] | MIC S. a. Smith [7] [µg/mL] | MIC S. a. 76 [8] [µg/mL] | HSB, human serum binding ([1]; pooled human serum, ultrafiltration, 10 minutes at 37° C.) [%] | HSB*, human serum binding calculated using serum effect on MIC ([2]; MIC against S. aureus ATCC 29213 in growth medium vs 1:1 growth medium and human serum) [%] |
| --- | --- | --- | --- | --- | --- | --- | --- | --- | --- | --- | --- |
| NC(=O)CSCc1cnccc1SC1=C(C(=O)O)N2C(=O)[C@@H](NC(=O)/C(=N\O)c3nc(N)sc3Cl)[C@H]2SC1 [Compound 22] | 94 | 88 | 1 (≈ 1.62 µM) | 1.15 (0.7-1.6) mg/kg | 0.5 (≈ 0.812 µM) | 4 (≈ 6.49 µM) | 0.5 (≈ 0.812 µM) | 0.25 (≈ 0.406 µM) | 4 (≈ 6.49 µM) |  |  |
| NCCSCc1cnccc1SC1=C(C(=O)O)N2C(=O)[C@@H](NC(=O)/C(=N\O)c3nc(N)sc3Cl)[C@H]2SC1 [RWJ 54428, reference compound] |  |  | 0.25 (≈ 0.415 µM) | 1.0 (0.7-1.6) mg/kg | 0.06 (≈ 0.0996 µM) | 0.5 (≈ 0.83 µM) | 0.25 (≈ 0.415 µM) | 0.125 (≈ 0.208 µM) | 1 (≈ 1.66 µM) | 84 | 67 |
